What was measured:
[1] = Plasma protein binding by equilibrium dialysis, rat; format: in vitro ADME; details: read-out: fu (rat)
Description: The binding of test substances to plasma proteins is determined by equilibrium dialysis by means of the Ht-dialysis apparatus (96-well) made of Teflon and a semipermeable membrane (regenerated cellulose, MWCO 12-14K). This separates 150 μl each of a plasma side and a buffer side (50 mM phosphate buffer). The test substance is added in 2 concentrations (usually 3 and 0.3 μM) to the plasma side and binds to plasma proteins. The unbound fraction of the test substance passes through the membrane and is distributed on either side until equilibrium is established (after approx. 6-8 h at 37° C.). The substance concentration on the buffer side and the plasma side is determined by LC-MS analysis. For this, both sides are brought by dilution with buffer or plasma to the same matrix (10% plasma) and then precipitated with methanol. The free (unbound) fraction (fu) is calculated from the quotient of the buffer and plasma concentration. Stability tests and recovery tests are run concurrently as controls. In addition, the substance in buffer is dialysed against buffer, to check the nonspecific binding to apparatus and membrane and establishment of equilibrium. Because during incubation the osmotic pressure of the plasma proteins leads to dilution of the plasma (volume shift), this possible error is determined by weighing blank plasma samples and is included in the calculation of fu. Establishment of equilibrium and plasma stability should have a value not lower than 80% and the recovery should be at least 30%. A free fraction of <1% is regarded as high, between 1 and 10% as moderate and >10% as low plasma protein binding.

[2] = Prediction of human pharmacokinetic parameters and human therapeutic dosage
Description: The human pharmacokinetic (PK) parameters (Table 9) were predicted based on the in vivo PK parameters obtained for rats (single species scaling), taking into account the interspecies differences in the free fraction (fu) in the plasma. The effective AUC (area under curve) was determined based on the measured plasma concentration time profile for in vivo efficacy in the PC3 tumour model of the mouse (nu/nu mouse).

human ACC1 = assay: Human ACC1 enzyme assay (ADP-Glo); format: biochemical

## Cc1ccc(-c2ccc(Cl)c(F)c2)cc1C1=C(O)C2(CCC(F)(F)CC2)NC1=O [Example 1-1, 3-(4′-Chloro-3′-fluoro-4-methylbiphenyl-3-yl)-8,8-difluoro-4-hydroxy-1-azaspiro[4.5]dec-3-en-2-one]
[1]
  fraction unbound: 0.0027
[2]; from mouse dosage 40 mg/kg 2 × per day
  calc. AUC (human): 1882 µg·h/mL
[2]; from mouse dosage 80 mg/kg 2 × per day
  calc. AUC (human): 3041 µg·h/mL
[2]; predicted (fu-corrected), single species scaling from rat
  pred. CL (human): 3 mL/h/kg

## Cc1ccc(-c2ccc(Cl)cc2)cc1C1=C(O)C2(CCC(F)(F)CC2)NC1=O [Example 1-2, 3-(4′-Chloro-4-methylbiphenyl-3-yl)-8,8-difluoro-4-hydroxy-1-azaspiro[4.5]dec-3-en-2-one]
Human ACC1
  Selectivity ACC1 vs. ACC2 (mean of the individual measurements ± standard deviation): 13.4 ± 4.5
